The target in this assay is human P2X3 receptor (Homo sapiens (Human), UniProt P56373). Nature of the assay: P2X3 receptor inhibition, ATP-evoked Fluo-3 calcium fluorescence (FDSS 3000). Type of assay: cell-based. To be noted: C6BU-1 cell transfected with human P2X3 receptor gene; ATP-evoked Fluo-3 fluorescence. As for the experimental part: Stably expressing cell line (C6BU-1 cell transfected with human P2X3 receptor gene (GenBank accession number Y07683)) was used. The cells were seeded in a 96-well microtiter plate at a concentration of 8000 cells/well and cultured in the medium (8.3% fetal bovine serum, 8.3% horse serum, 1% antibiotic and antifungal in DMEM) for one day at 37° C. under 5% carbon dioxide atmosphere. The medium was replaced with 4 μM Fluo-3-AM solution (pH7.5) containing 20 mM HEPES, 137 mM NaCl, 2.7 mM KCl, 0.9 mM MgCl2, 5.0 mM CaCl2, 5.6 mM D-glucose, 2.5 mM probenecid, 10% BSA, and 0.08% Pluronic F-127, and incubated at 37° C. under 5% dioxide carbon atmosphere for one hour. The plate was washed with washing buffer (20 mM HEPES, 137 mM NaCl, 2.7 mM KCl, 0.9 mM MgCl2, 5.0 mM CaCl2, 5.6 mM D-glucose, 2.5 mM probenecid, pH7.5), and each well was added with 40 μL of this buffer. The plate was placed in High-Throughput Screening System FDSS 3000 (Hamamatsu Photonics K.K.). Measurement of fluorescence intensity by FDSS 3000 was started, and 40 μL of DMSO solutions containing different concentrations of the test compound as prepared by dilution with dilution buffer (20 mM HEPES, 137 mM NaCl, 2.7 mM KCl, 0.9 mM MgCl2, 5.0 mM CaCl2, 5.6 mM D-glucose, 2.5 mM probenecid, 0.1% Pluronic F-127, pH7.5) were dispensed to each well through the built-in automatic dispenser. Five minutes after, 40 nM ATP solution (50 μL) prepared by dilution with the dilution buffer was dispensed through the built-in automatic dispenser, and the measurement of fluorescence intensity was continued for 3 min. For each well, the specific maximum fluorescence intensity was calculated as the ratio of the maximum fluorescence intensity after addition of the ATP solution to the fluorescence intensity at the starting of the measurement. […] FDSS software (Hamamatsu Photonics K.K.) was used for calculation of the specific maximum fluorescence intensity. IC50 was calculated using Microsoft™ Excel™ (Microsoft Corporation) and XLfit™ (ID Business Solutions Ltd.).

The structures appear in SMILES notation.

By IC50 is commonly meant the midpoint of a concentration-inhibition curve.

Chain of human P2X3 receptor (P56373 whole entry): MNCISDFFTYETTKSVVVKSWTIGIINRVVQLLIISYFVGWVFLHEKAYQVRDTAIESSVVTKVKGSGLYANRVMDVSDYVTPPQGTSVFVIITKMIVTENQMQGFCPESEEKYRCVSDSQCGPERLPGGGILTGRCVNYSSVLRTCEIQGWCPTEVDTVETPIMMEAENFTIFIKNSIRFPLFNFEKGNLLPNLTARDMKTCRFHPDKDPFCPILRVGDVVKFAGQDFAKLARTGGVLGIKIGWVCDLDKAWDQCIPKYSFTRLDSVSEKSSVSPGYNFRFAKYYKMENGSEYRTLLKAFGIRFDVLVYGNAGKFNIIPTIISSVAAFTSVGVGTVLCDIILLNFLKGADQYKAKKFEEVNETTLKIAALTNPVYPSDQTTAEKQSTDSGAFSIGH

Take `CC(=O)N(C)c1ccccc1C1c2c(C(C)C)n[nH]c2C(=O)N1c1ccc(-c2ccsc2)cc1` (stereo not drawn) [II-082]: the half-maximal inhibitory concentration (IC50) was determined as 44 nM.

Turning to `COCOc1ccccc1C1C(C(=O)CC(C)C)=C(O)C(=O)N1c1ccc(-c2noc(C)n2)cc1` (stereo not drawn) [Compound I-316], the IC50 was determined as 130 nM. Turning to `CC(C)CC(=O)C1=C(O)C(=O)N(c2ccc(-c3ccsc3)cc2)C1c1ccccc1C(F)(F)F` (stereo not drawn) [Compound I-292], the IC50 was 127 nM. In the case of `O=C(C1=C(O)C(=O)N(c2ccc(-c3ccon3)cc2)C1C1CCCCC1)c1ccc(Br)cc1` (stereo not drawn) [Compound I-016], the IC50 stood at 79 nM.

Consider `COc1ccccc1C1C(C(=O)C(C)(C)C)=C(O)C(=O)N1c1ccc(-c2cc[nH]c2)cc1` (stereo not drawn) [Compound I-094], for which the IC50 was determined as 301 nM. In the case of `Cc1ccc(-c2ccc(N3C(=O)C(O)=C(C(=O)C(C)C)C3c3cccnc3OCCO)cc2)o1` (stereo not drawn) [Compound I-483] it was 89 nM; in that of `CCOc1ccccc1C1c2c(C(C)(C)C)n[nH]c2C(=O)N1c1ccc(-c2ccon2)cc1` (stereo not drawn) [II-101], 27 nM. With `CCOc1ccccc1C1C(C(=O)CC(C)C)=C(O)C(=O)N1c1ccc(-c2ccoc2)cc1` (stereo not drawn) [Compound I-347], the IC50 was found to be 47 nM. `COCCOc1ccccc1C1C(C(=O)CC(C)C)=C(O)C(=O)N1c1ccc(-c2ccoc2)cc1` (stereo not drawn) [Compound I-348]: the IC50 was 55 nM. Consider `COCCOc1ncccc1C1C(C(=O)C(C)(C)C)=C(O)C(=O)N1c1ccc(-c2ccsc2)cc1` (stereo not drawn) [Compound I-138], for which the IC50 came out at 16 nM. In the case of `COc1ccccc1C1C(C(=O)C(C)(C)C)=C(O)C(=O)N1c1ccc(-c2cccs2)cc1` (stereo not drawn) [Compound I-079] it was 23 nM.

On to `CNc1cc(-c2ccc(N3C(=O)c4[nH]nc(C(C)(C)C)c4C3c3ccccc3OC)cc2)on1` (stereo not drawn) [II-146], for which the IC50 is 416 nM. `CCN(C)C(=O)c1ccccc1C1C(C(=O)C(C)C)=C(O)C(=O)N1c1ccc(-c2ccc(C)o2)cc1` (stereo not drawn) [Compound I-495]: the IC50 was determined as 59 nM. For `CC(C)(C)C(=O)C1=C(O)C(=O)N(c2ccc(-c3cc[nH]c3)cc2)C1c1ccccc1OCCO` (stereo not drawn) [Compound I-154] the value was 192 nM; for `COc1ccccc1C1c2c(C(C)(C)C)n[nH]c2C(=O)N1c1ccc(-c2cccs2)cc1` (stereo not drawn) [II-213], 11 nM. For `Cc1ccc(-c2ccc(N3C(=O)C(O)=C(C(=O)C(C)C)C3c3ccccc3OCCO)cc2)s1` (stereo not drawn) [Compound I-258], the IC50 turned out to be 24 nM.

Consider `COCOc1ccccc1C1C(C(=O)CC(C)C)=C(O)C(=O)N1c1ccc(-c2ccc(C)o2)cc1` (stereo not drawn) [Compound I-382], for which the IC50 stood at 6 nM.

As to `COc1ncccc1C1c2c(C(C)(C)C)n[nH]c2C(=O)N1c1ccc(-c2nc(C)no2)cc1` (stereo not drawn) [II-195], the IC50 was found to be 944 nM. `COc1ccc(C2(c3n[nH]c4c3C(c3ccccc3OC)N(c3ccc(-c5ccon5)cc3)C4=O)CC2)cc1` (stereo not drawn) [II-198]: the IC50 stood at 123 nM. On to `CC(C)(C)C(=O)C1=C(O)C(=O)N(c2ccc(-c3ccon3)cc2)C1c1cccc2c1OCO2` (stereo not drawn) [Compound I-055], for which the half-maximal inhibitory concentration (IC50) was determined as 596 nM. Turning to `COC(=O)COc1ccccc1C1C(C(=O)C(C)(C)C)=C(O)C(=O)N1c1ccc(-c2ccon2)cc1` (stereo not drawn) [Compound I-133], the IC50 amounted to 367 nM.

As for `COCc1ccccc1C1C(C(=O)C(C)C)=C(O)C(=O)N1c1ccc(-c2cscn2)cc1` (stereo not drawn) [Compound I-418], the IC50 is 593 nM.

Consider `COCc1ccccc1C1C(C(=O)CC(C)C)=C(O)C(=O)N1c1ccc(-c2ccc(C)o2)cc1` (stereo not drawn) [Compound I-380], for which the IC50 was 7 nM. Consider `COCc1ccccc1[C@@H]1C(C(=O)CC(C)C)=C(O)C(=O)N1c1ccc(-c2ccsc2)cc1` [Compound I-356], for which the IC50 came out at 7 nM. For `COc1ccccc1C1C(S(=O)(=O)C(C)C)=C(O)C(=O)N1c1ccc(-c2ccc(C)o2)cc1` (stereo not drawn) [Compound I-467] the value was 286 nM; for `COCCOc1ncccc1C1C(C(=O)C(C)C)=C(O)C(=O)N1c1ccc(-c2ccc(C)o2)cc1` (stereo not drawn) [Compound I-357], 20 nM; for `CN(C)c1ccccc1C1C(C(=O)C(C)(C)C)=C(O)C(=O)N1c1ccc(-c2ccon2)cc1` (stereo not drawn) [Compound I-070], 519 nM. As for `Cc1cc(-c2ccc(N3C(=O)C(O)=C(C(=O)CC(C)C)C3c3ccccc3OC(C)C)cc2)cs1` (stereo not drawn) [Compound I-373], the IC50 was 51 nM. As to `CCC(CC)C1C(C(=O)c2ccc(C(=O)NCCO)cc2)=C(O)C(=O)N1c1ccc(-c2ccon2)cc1` (stereo not drawn) [Compound I-008], the IC50 is 14 nM. In the case of `COC(=O)n1nc(C(C)(C)C)c2c1C(=O)N(c1ccc(Br)cc1)C2c1ccccc1OC` (stereo not drawn) [II-229] it was 82 nM; in that of `COc1ccc2nc(N3C(=O)c4[nH]nc(C(C)(C)CO)c4C3c3ccccc3OC)sc2c1` (stereo not drawn) [II-142], 104 nM. `COCCN(C)C(=O)c1ccccc1C1C(C(=O)CC(C)C)=C(O)C(=O)N1c1ccc(-c2csc(C)c2)cc1` (stereo not drawn) [Compound I-497]: the IC50 came out at 36 nM.

Consider `C[S+]([O-])CCOc1ccccc1C1c2c(C(C)(C)C)n[nH]c2C(=O)N1c1ccc(-c2ccsc2)cc1` (stereo not drawn) [II-076], for which the IC50 was 12 nM.

Turning to `Cc1nc(-c2ccc(N3C(=O)C(O)=C(C(=O)CC(C)C)C3c3ccccc3OC(F)F)cc2)no1` (stereo not drawn) [Compound I-318], the IC50 turned out to be 328 nM. For `COc1ccccc1C1C(C(=O)C(C)(C)C)=C(O)C(=O)N1c1ccc(-c2ccsc2Cl)cc1` (stereo not drawn) [Compound I-192] the value was 612 nM; for `CC(C)c1n[nH]c2c1C(c1ccccc1C(=O)O)N(c1ccc(-c3ccsc3)cc1)C2=O` (stereo not drawn) [II-089], 107 nM; for `Cc1ccc(-c2ccc(N3C(=O)C(O)=C(C(=O)CC(C)C)C3c3cccnc3C(N)=O)cc2)s1` (stereo not drawn) [Compound I-572], 171 nM.

With `COCCOc1ccccc1C1C(C(=O)CC(C)C)=C(O)C(=O)N1c1ccc(-c2noc(C)n2)cc1` (stereo not drawn) [Compound I-276], the IC50 was 117 nM. In the case of `CC(C)(C)C(=O)C1=C(O)C(=O)N(c2ccc(-c3ccon3)cc2)C1c1ccccc1OC(F)F` (stereo not drawn) [Compound I-064] it was 137 nM; in that of `CC(C)(C)C(=O)C1=C(O)C(=O)N(c2ccc(-c3ccon3)cc2)C1c1ccccc1OCC(=O)O` (stereo not drawn) [Compound I-134], 776 nM.

On to `CC(C)CC(=O)C1=C(O)C(=O)N(c2ccc(-c3ccoc3)cc2)C1c1ccccc1OCCO` (stereo not drawn) [Compound I-350], for which the IC50 worked out at 66 nM. For `Cc1ccc(-c2ccc(N3C(=O)C(O)=C(C(=O)C(C)C)C3c3ccccc3OC(F)F)cc2)s1` (stereo not drawn) [Compound I-333] the value was 58 nM; for `COc1ncccc1C1c2c(C(C)(C)C)n[nH]c2C(=O)N1c1ccc(C2=NCCS2)cc1` (stereo not drawn) [II-192], 222 nM. For `CCCc1ccc(N2C(=O)c3[nH]nc(C(C)(C)C)c3C2c2ccccc2OC)cc1` (stereo not drawn) [II-001] the value was 104 nM; for `CSc1ccc(N2C(=O)C(O)=C(C(=O)CC(C)C)C2c2ccccc2OCC#N)cc1` (stereo not drawn) [Compound I-511], 117 nM. Turning to `COc1ccccc1C1c2c(C(C)(C)C)n[nH]c2C(=O)N1c1ccc(N(C)C)cc1` (stereo not drawn) [II-202], the IC50 amounted to 76 nM. On to `CNC(=O)CCc1ccccc1C1C(C(=O)C(C)C)=C(O)C(=O)N1c1ccc(-c2noc(C)n2)cc1` (stereo not drawn) [Compound I-593], for which the IC50 was 811 nM. In the case of `COc1ncccc1C1C(C(=O)CC(C)C)=C(O)C(=O)N1c1ccc(-c2ccc(C)s2)cc1` (stereo not drawn) [Compound I-336] it was 351 nM; in that of `COCCOc1ncccc1C1C(C(=O)C2CCCC2)=C(O)C(=O)N1c1ccc(-c2ccsc2)cc1` (stereo not drawn) [Compound I-517], 26 nM.

Consider `COc1ccccc1C1C(C(=O)C(C)C)=C(O)C(=O)N1c1ccc(SC)cc1` (stereo not drawn) [Compound I-473], for which the IC50 amounted to 182 nM. As to `CC(C)CC(=O)C1=C(O)C(=O)N(c2ccc(-c3ccoc3)cc2)C1c1ccccc1OC(C)C` (stereo not drawn) [Compound I-408], the IC50 stood at 18 nM. For `COCCOCc1ncccc1C1C(C(=O)C(C)(C)C)=C(O)C(=O)N1c1ccc(-c2ccsc2)cc1` (stereo not drawn) [Compound I-168] the value was 120 nM; for `COCCOc1ccccc1C1C(C(=O)C(C)C)=C(O)C(=O)N1c1ccc(-c2ccon2)cc1` (stereo not drawn) [Compound I-298], 269 nM; for `CC(C)CC(=O)C1=C(O)C(=O)N(c2ccc(-c3ccoc3)cc2)C1c1ccccc1OC(F)F` (stereo not drawn) [Compound I-342], 67 nM. As for `COc1ccc(CC(=O)C2=C(O)C(=O)N(c3ccc(-c4noc(C)n4)cc3)C2C2CCCCC2)cc1` (stereo not drawn) [Compound I-331], the IC50 is 722 nM. In the case of `COCCOc1cccc(C2C(C(=O)C(C)C)=C(O)C(=O)N2c2ccc(-c3ccsc3)cc2)c1` (stereo not drawn) [Compound I-286] it was 669 nM. On to `COc1ccccc1C1C2C(=O)C(C)(C)COC2(O)C(=O)N1c1ccc(-c2ccsc2)cn1` (stereo not drawn) [Compound I-095], for which the IC50 came to 195 nM.

The record behind these values is patent US8575197B2, “Pyrolinone derivative and pharmaceutical composition comprising the same” (Shionogi & Co., Ltd., priority 2008, dated 2013).
